# Laboratory results: the supplement of paper PMC10307832
# Key:
# Experiment in all cases: relative viability (nuclei count vs DMSO), 5 days (fraction); higher = more cells survive
# [1] = system: 201T
# Method in brief: (§1)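 Nuclei were stained with Hoechst during a one-step fixation (final 0.05% Triton X-100, 1% formaldehyde, 1 ug/ml Hoechst) carried out 5 days after dosing, then counted on 4× images. The cells, lung cancer lines in 1536-well plates, had been dosed by pin tool the day after seeding with one drug alone or a fixed anchor-drug dose plus five library-drug doses (not always all listed) in √10 steps. Relative viability is the nuclei count in treated wells divided by that in vehicle wells, and each value is the median of duplicate plates.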
# [2] = system: CAL-12T
# Method in brief: as §1
# [3] = system: COR-L 105
# Method in brief: as §1
# [4] = system: H3255
# Method in brief: as §1
# [5] = system: HARA
# Method in brief: as §1
# [6] = system: HCC-15
# Method in brief: as §1
# [7] = system: HCC-827
# Method in brief: as §1
# [8] = system: LCLC-97TM1
# Method in brief: as §1
# [9] = system: LU99A
# Method in brief: as §1
# [10] = system: NCI-H1395
# Method in brief: as §1
# [11] = system: NCI-H1651
# Method in brief: as §1
# [12] = system: NCI-H1792
# Method in brief: as §1
# [13] = system: NCI-H2009
# Method in brief: as §1
# [14] = system: NCI-H2087
# Method in brief: as §1
# [15] = system: NCI-H2170
# Method in brief: as §1
# [16] = system: NCI-H2228
# Method in brief: as §1
# [17] = system: NCI-H23
# Method in brief: as §1
# [18] = system: NCI-H2405
# Method in brief: as §1
# [19] = system: NCI-H650
# Method in brief: as §1
# [20] = system: NCI-H661
# Method in brief: as §1
# [21] = system: PC-3 [JPC-3]
# Method in brief: as §1
# [22] = system: SK-MES-1
# Method in brief: as §1
# [23] = system: UMC-11
# Method in brief: as §1
structure (smiles),measurement,setting,value
Oc1nc(-c2ccc(C(F)(F)F)cc2)nc2c1CSCC2 [XAV939] + Cc1nc(Nc2ncc(C(=O)Nc3c(C)cccc3Cl)s2)cc(N2CCN(CCO)CC2)n1 [Dasatinib] (partner 0.075 µM),relative viability,[1]; first compound 0.08 µM,0.432
same,relative viability,[1]; first compound 0.253 µM,0.385
same,relative viability,[1]; first compound 0.8 µM,0.443
same,relative viability,[1]; first compound 2.53 µM,0.366
same,relative viability,[2]; first compound 0.08 µM,0.572
same,relative viability,[2]; first compound 0.253 µM,0.401
same,relative viability,[2]; first compound 0.8 µM,0.308
same,relative viability,[2]; first compound 2.53 µM,0.211
same,relative viability,[3]; first compound 0.08 µM,0.348
same,relative viability,[3]; first compound 0.253 µM,0.378
same,relative viability,[3]; first compound 0.8 µM,0.315
same,relative viability,[3]; first compound 2.53 µM,0.273
same,relative viability,[4]; first compound 0.08 µM,0.341
same,relative viability,[4]; first compound 0.253 µM,0.373
same,relative viability,[4]; first compound 0.8 µM,0.313
same,relative viability,[4]; first compound 2.53 µM,0.448
same,relative viability,[5]; first compound 0.08 µM,0.229
same,relative viability,[5]; first compound 0.253 µM,0.201
same,relative viability,[5]; first compound 0.8 µM,0.275
same,relative viability,[5]; first compound 2.53 µM,0.256
same,relative viability,[6]; first compound 0.08 µM,0.633
same,relative viability,[6]; first compound 0.253 µM,0.463
same,relative viability,[6]; first compound 0.8 µM,0.601
same,relative viability,[6]; first compound 2.53 µM,0.54
same,relative viability,[7]; first compound 0.08 µM,0.349
same,relative viability,[7]; first compound 0.253 µM,0.297
same,relative viability,[7]; first compound 0.8 µM,0.393
same,relative viability,[7]; first compound 2.53 µM,0.437
same,relative viability,[8]; first compound 0.08 µM,0.981
same,relative viability,[8]; first compound 0.253 µM,0.851
same,relative viability,[8]; first compound 0.8 µM,0.964
same,relative viability,[8]; first compound 2.53 µM,0.977
same,relative viability,[9]; first compound 0.08 µM,0.503
same,relative viability,[9]; first compound 0.253 µM,0.56
same,relative viability,[9]; first compound 0.8 µM,0.591
same,relative viability,[9]; first compound 2.53 µM,0.457
same,relative viability,[10]; first compound 0.08 µM,0.4
same,relative viability,[10]; first compound 0.253 µM,0.378
same,relative viability,[10]; first compound 0.8 µM,0.381
same,relative viability,[10]; first compound 2.53 µM,0.458
same,relative viability,[11]; first compound 0.08 µM,0.389
same,relative viability,[11]; first compound 0.253 µM,0.366
same,relative viability,[11]; first compound 0.8 µM,0.362
same,relative viability,[11]; first compound 2.53 µM,0.401
same,relative viability,[12]; first compound 0.08 µM,0.877
same,relative viability,[12]; first compound 0.253 µM,0.809
same,relative viability,[12]; first compound 0.8 µM,0.87
same,relative viability,[12]; first compound 2.53 µM,0.725
same,relative viability,[13]; first compound 0.08 µM,0.31
same,relative viability,[13]; first compound 0.253 µM,0.271
same,relative viability,[13]; first compound 0.8 µM,0.205
same,relative viability,[13]; first compound 2.53 µM,0.208
same,relative viability,[14]; first compound 0.08 µM,1.11
same,relative viability,[14]; first compound 0.253 µM,0.623
same,relative viability,[14]; first compound 0.8 µM,0.891
same,relative viability,[14]; first compound 2.53 µM,0.689
same,relative viability,[15]; first compound 0.08 µM,0.505
same,relative viability,[15]; first compound 0.253 µM,0.496
same,relative viability,[15]; first compound 0.8 µM,0.46
same,relative viability,[15]; first compound 2.53 µM,0.394
same,relative viability,[16]; first compound 0.08 µM,0.496
same,relative viability,[16]; first compound 0.253 µM,0.426
same,relative viability,[16]; first compound 0.8 µM,0.473
same,relative viability,[16]; first compound 2.53 µM,0.382
same,relative viability,[17]; first compound 0.08 µM,0.872
same,relative viability,[17]; first compound 0.253 µM,0.7
same,relative viability,[17]; first compound 0.8 µM,0.895
same,relative viability,[17]; first compound 2.53 µM,0.722
same,relative viability,[18]; first compound 0.08 µM,0.221
same,relative viability,[18]; first compound 0.253 µM,0.225
same,relative viability,[18]; first compound 0.8 µM,0.214
same,relative viability,[18]; first compound 2.53 µM,0.229
same,relative viability,[19]; first compound 0.08 µM,0.497
same,relative viability,[19]; first compound 0.253 µM,0.501
same,relative viability,[19]; first compound 0.8 µM,0.444
same,relative viability,[19]; first compound 2.53 µM,0.414
same,relative viability,[20]; first compound 0.08 µM,1
same,relative viability,[20]; first compound 0.253 µM,0.851
same,relative viability,[20]; first compound 0.8 µM,0.812
same,relative viability,[20]; first compound 2.53 µM,0.637
same,relative viability,[21]; first compound 0.08 µM,1.09
same,relative viability,[21]; first compound 0.253 µM,0.899
same,relative viability,[21]; first compound 0.8 µM,0.938
same,relative viability,[21]; first compound 2.53 µM,1.05
same,relative viability,[22]; first compound 0.08 µM,0.339
same,relative viability,[22]; first compound 0.253 µM,0.344
same,relative viability,[22]; first compound 0.8 µM,0.392
same,relative viability,[22]; first compound 2.53 µM,0.284
same,relative viability,[23]; first compound 0.08 µM,0.542
same,relative viability,[23]; first compound 0.253 µM,0.396
same,relative viability,[23]; first compound 0.8 µM,0.427
same,relative viability,[23]; first compound 2.53 µM,0.408
